Read-outs that look alike come from different tables or passages of the source.
Experiments:
[1] = tested on: induced IgG antibodies by DT-RM4.7/C34 vaccine; assay: Specificity analysis of antibodies induced by DT-RM4.7/C34 vaccine on glycan microarray; assay type: binding, mouse; conditions: sera of DT-RM4.7/C34-immunized mice; for binding of induced IgG antibodies to glycan: FIG. 14; for binding of induced antibodies to glycan, microarray of STn, DSGG, RM2 antigen, analogs and fragments: FIG. 15
Procedure: It was observed that these oligosaccharides all contain the same epitope trisaccharide 27 (NeuAcα2→6GlcNAcβ1→3Galβ1→R). To further evaluate the vaccine specificity, a glycan microarray created by STn, DSGG, RM2 antigen, RM2 antigen analogs, and RM2 antigen fragments was constructed (FIG. 15).
Microarrays were printed (BioDot; CartesianTechnologies) by robotic pin (SMP3; TeleChem In-ternational Inc.) deposition of 0.7 nL 100 μM amine-containing glycans in printing buffer (300 mM phosphate buffer, pH 8.5, containing 0.01% TritonX-100) from a […] microtiter plate onto N-Hydroxysuccinimide (NHS)-coated glass slides. Subsequently, a 96-glycan microarray (Fig. S2) was used to determine the polyclonal Ab spectrum of DT-RM series-induced antiserum. Printed slides were allowed to react in an atmosphere of 80% humidity for 1 h followed by desiccation overnight. These slides were stored at room temperature in a desiccator prior to use.
Mouse sera were diluted with 1% BSA/PBST buffer (PBST buffer: PBS and 0.05% Tween-20, pH 7.4). The glycan microarray was blocked with 50 mM ethanolamine for 1 h at 0° C. and washed three times with PBST buffer before use. The serum dilutions were then introduced to the glycan microarray and incubated at 0° C. for 1 h. Next, Cy3-conjugated goat anti-mouse IgG (H+L), IgG1, IgG2a, IgG2b, IgG2c, IgG3, or anti-mouse IgM was added to the microarray slide and then sealed for 1 h incubation at 0° C. in the dark. Finally, the slides were washed three times with PBST, PBST washing buffer, and ddH2O in sequence. The slides were spin-dried for 5 minutes before scanned at 635 nm with a microarray fluorescence chip reader (GenePix 4300A; Molecular Devices Corporation). Scanned images were analyzed with GenePix Pro-6.0 analysis software (Axon Instruments, Union City, Calif., USA).

monoclonal RM2 antibody = assay: Determination of surface dissociation constant (KD,surf) on glycan microarray; assay type: binding, mouse
Procedure: An expanded glycan array containing the synthesized hexasaccharide 1 and its analogs along with the other ninety glycans are incorporated to a glycan array for testing (Figure S4). All glycans were directly immobilized onto NHS-coated glass slides by taking an aliquot from a stock solution of sugar at a fixed concentration (100 μM). The assay involved an initial treatment with RM2 (a mouse IgM anti-RM2 monoclonal antibody, a kind gift from Prof. Saito), followed by incubation with a fluorescein-tagged anti mouse IgM secondary antibody against its primary antibody. After one hour incubation, the slides were washed with ddH2O twice and scanned to show the binding specificity of the antibody to printed oligosaccharides. […] To determine the dissociation the dissociation constants of RM2 and truncated analogs on the surface interacting with the antibody in a multivalent manner, the direct measurement method was experimented (Liang, P. H.; Wang, S. K.; Wong, C. H. J. Am. Chem. Soc. 2007, 129, 11177), using different concentrations of antibodies and printed sugars. […] At the printing concentrations from 100 μM to 6.25 μM, however, it was observed that the KD,surf values measured were narrowly distributed from the individual curves (FIG. 20 and Table 1). Using the same method, the KD,surf values were determined for the truncated RM2 analog 29 interacting with the antibody (FIG. 21 and Table S2).
The slides were spotted with solution of RM2 1 and 29 with concentrations 100, 50, 25, 12.5, and 6.25 μM 2 rows from top to bottom with 5 replicates horizontally placed in each grids. The glycan microarray was blocked with 50 mM ethanolamine for 1 h at 0° C. and washed three times with PBST buffer before use. The monoclonal RM2 antibody was diluted with 3% BSA/PBST buffer (PBST buffer: PBS and 0.05% Tween-20, pH 7.4). Next, Cy3-conjugated goat anti-mouse IgM antibody was added into the diluted solution to precomplex with primary antibody. The precomplexed solution was applied to each well and incubated at 0° C. for 1 h in the dark. Finally, the slides were washed by PBST washing buffer and ddH2O in sequence. The slides were spin-dried for 5 minutes before scanned at 635 nm with a microarray fluorescence chip reader (GenePix 4300A; Molecular Devices Corporation). Scanned images were analyzed with GenePix Pro-6.0 analysis software (Axon Instruments, Union City, Calif., USA).

[2] = tested on: RM2 (a mouse IgM anti-RM2 monoclonal antibody); assay: Glycan array binding specificity of monoclonal antibody RM2; conditions: glycans printed at 100 μM; FIG. 11
Procedure: An expanded glycan array containing the synthesized hexasaccharide 1 and its analogs along with the other ninety glycans are incorporated to a glycan array for testing (Figure S4). All glycans were directly immobilized onto NHS-coated glass slides by taking an aliquot from a stock solution of sugar at a fixed concentration (100 μM). The assay involved an initial treatment with RM2 (a mouse IgM anti-RM2 monoclonal antibody, a kind gift from Prof. Saito), followed by incubation with a fluorescein-tagged anti mouse IgM secondary antibody against its primary antibody. After one hour incubation, the slides were washed with ddH2O twice and scanned to show the binding specificity of the antibody to printed oligosaccharides. […] To determine the dissociation the dissociation constants of RM2 and truncated analogs on the surface interacting with the antibody in a multivalent manner, the direct measurement method was experimented (Liang, P. H.; Wang, S. K.; Wong, C. H. J. Am. Chem. Soc. 2007, 129, 11177), using different concentrations of antibodies and printed sugars. […] Using the same method, the KD,surf values were determined for the truncated RM2 analog 29 interacting with the antibody (FIG. 21 and Table S2). […]

[3] = antibody RM2, glycan printed on microarray, read-out: KD, surf (nM) ± SD

CC(=O)N[C@H]1[C@H](O[C@H]2[C@@H](O)[C@@H](CO)O[C@@H](OCCCCCN)[C@@H]2O)O[C@H](CO[C@]2(C(=O)O)C[C@H](O)[C@@H](NC(C)=O)[C@H]([C@H](O)[C@H](O)CO)O2)[C@@H](O)[C@@H]1O [Compound 27, (2R,4S,5R,6R)-5-acetamido-2-(((2R,3S,4R,5R,6S)-5-acetamido-6-((2R,3R,4S,5S,6R)-2-(5-aminopentyloxy)-3,5-dihydroxy-6-(hydroxymethyl)tetrahydro-2H-pyran-4-yloxy)-3,4-dihydroxytetrahydro-2H-pyran-2-yl)methoxy)-4-hydroxy-6-((1R,2R)-1,2,3-trihydroxypropyl)tetrahydro-2H-pyran-2-carboxylic acid]
binding of induced IgG antibodies to glycan [1]: weaker binding | binding of induced antibodies to glycan, microarray of STn, DSGG, RM2 antigen, analogs and fragments [1]: mainly bound

CC(=O)N[C@H]1[C@H](O[C@H]2[C@@H](O)[C@@H](CO)O[C@@H](OCCCCCN)[C@@H]2O)O[C@H](CO[C@]2(C(=O)O)C[C@H](O)[C@@H](NC(C)=O)[C@H]([C@H](O)[C@H](O)CO)O2)[C@@H](O)[C@@H]1O[C@@H]1O[C@H](CO)[C@H](O)[C@H](O)[C@H]1O [Compound 28, (2R,4S,5R,6R)-5-acetamido-2-(((2R,3S,4R,5R,6S)-5-acetamido-6-((2R,3R,4S,5S,6R)-2-(5-aminopentyloxy)-3,5-dihydroxy-6-(hydroxymethyl)tetrahydro-2H-pyran-4-yloxy)-3-hydroxy-4-((2R,3R,4S,5R,6R)-3,4,5-trihydroxy-6-(hydroxymethyl)tetrahydro-2H-pyran-2-yloxy)tetrahydro-2H-pyran-2-yl)methoxy)-4-hydroxy-6-((1R,2R)-1,2,3-trihydroxypropyl)tetrahydro-2H-pyran-2-carboxylic acid]
binding of induced IgG antibodies to glycan [1]: weaker binding

CC(=O)NC1C(O[C@@H]2OC(CO)[C@H](O)C(O[C@@]3(C(=O)O)CC(O)[C@H](NC(C)=O)C([C@H](O)[C@H](O)CO)O3)C2O)[C@H](O)C(CO[C@]2(C(=O)O)CC(O)[C@@H](NC(C)=O)C([C@H](O)[C@H](O)CO)O2)O[C@H]1OC1C(O)[C@H](OCCCCCN)OC(CO)[C@@H]1O (stereo partly shown) [Compound 30]
binding of induced IgG antibodies to glycan [1]: weaker binding

CC(=O)NC1[C@H](O[C@@H]2[C@H](O)[C@@H](O)[C@H](O[C@H]3[C@H](O)[C@@H](CO[C@]4(C(=O)O)C[C@H](O)[C@@H](NC(C)=O)[C@H]([C@H](O)[C@H](O)CO)O4)O[C@@H](O[C@H]4[C@@H](O)[C@@H](CO)O[C@@H](OCCCCCN)[C@@H]4O)[C@@H]3NC(C)=O)O[C@@H]2CO)O[C@H](CO)[C@H](O)[C@@H]1O (stereo partly shown) [Compound 29]
Fmax (monoclonal RM2 antibody; 29 on microarray, printing concentration 6.25 μM): 51,597 | Kd (monoclonal RM2 antibody; 29 on microarray, printing concentration 6.25 μM, read-out: KD, surf): 5.13 nM | Fmax (monoclonal RM2 antibody; 29 on microarray, printing concentration 12.5 μM): 50,900 | Kd (monoclonal RM2 antibody; 29 on microarray, printing concentration 12.5 μM, read-out: KD, surf): 4.05 nM | Fmax (monoclonal RM2 antibody; 29 on microarray, printing concentration 25 μM): 50,970 | Kd (monoclonal RM2 antibody; 29 on microarray, printing concentration 25 μM, read-out: KD, surf): 4.5 nM | Fmax (monoclonal RM2 antibody; 29 on microarray, printing concentration 50 μM): 59,045 | Kd (monoclonal RM2 antibody; 29 on microarray, printing concentration 50 μM, read-out: KD, surf): 6.44 nM | Fmax (monoclonal RM2 antibody; 29 on microarray, printing concentration 100 μM): 62,859 | Kd (monoclonal RM2 antibody; 29 on microarray, printing concentration 100 μM, read-out: KD, surf): 6.96 nM | Kd (monoclonal RM2 antibody; [3]): 5.76 ± 1.14 nM | binding of induced IgG antibodies to glycan [1]: weaker binding

CC(=O)N[C@H]1[C@H](OCCCCCN)O[C@H](CO[C@]2(C(=O)O)C[C@H](O)[C@@H](NC(C)=O)[C@H]([C@H](O)[C@H](O)CO)O2)[C@@H](O)[C@@H]1O [Compound 33, (2R,4S,5R,6R)-5-acetamido-2-(((2R,3S,4R,5R,6R)-5-acetamido-6-(5-aminopentyloxy)-3,4-dihydroxytetrahydro-2H-pyran-2-yl)methoxy)-4-hydroxy-6-((1R,2R)-1,2,3-trihydroxypropyl)tetrahydro-2H-pyran-2-carboxylic acid]
binding of induced antibodies to glycan, microarray of STn, DSGG, RM2 antigen, analogs and fragments [1]: a lesser extent

CC(=O)NC1C(OC2C(O)C(OCCCCCN)OC(CO)[C@H]2O)OC(CO[C@]2(C(=O)O)CC(O)[C@@H](NC(C)=O)C([C@H](O)[C@H](O)CO)O2)[C@@H](O)C1O (stereo partly shown) [Compound 34]
binding of induced antibodies to glycan, microarray of STn, DSGG, RM2 antigen, analogs and fragments [1]: a lesser extent

CC(=O)N[C@H]1[C@H]([C@H](O)[C@H](O)CO)O[C@@](OC[C@H]2OC(O)[C@H](O)[C@@H](O)[C@H]2O)(C(=O)O)C[C@@H]1O (stereo partly shown) [NeuAcα2→6Gal, reference compound]
binding of induced antibodies to glycan, microarray of STn, DSGG, RM2 antigen, analogs and fragments [1]: no detectable signal of binding

CC(=O)N[C@@H]1[C@@H]([C@H](O)[C@H](O)CO)O[C@](O[C@@H]2[C@@H](O)[C@H](O[C@H]3[C@H](O)[C@@H](CO[C@]4(C(=O)O)C[C@H](O)[C@@H](NC(C)=O)[C@H]([C@H](O)[C@H](O)CO)O4)O[C@@H](O[C@H]4[C@@H](O)[C@@H](CO)O[C@@H](OCCCCCN)[C@@H]4O)[C@@H]3NC(C)=O)O[C@H](CO)[C@@H]2O[C@@H]2O[C@H](CO)[C@H](O)[C@H](O)[C@H]2NC(C)=O)(C(=O)O)C[C@H]1O [Compound 1]
Fmax (monoclonal RM2 antibody; RM2 printing concentration 6.25 μM): 45,483 | Kd (monoclonal RM2 antibody; RM2 printing concentration 6.25 μM, read-out: KD, surf): 4.72 nM | Fmax (monoclonal RM2 antibody; RM2 printing concentration 12.5 μM): 45,028 | Kd (monoclonal RM2 antibody; RM2 printing concentration 12.5 μM, read-out: KD, surf): 3.14 nM | Fmax (monoclonal RM2 antibody; RM2 printing concentration 25 μM): 47,714 | Kd (monoclonal RM2 antibody; RM2 printing concentration 25 μM, read-out: KD, surf): 4.28 nM | Fmax (monoclonal RM2 antibody; RM2 printing concentration 50 μM): 53,982 | Kd (monoclonal RM2 antibody; RM2 printing concentration 50 μM, read-out: KD, surf): 5.48 nM | Fmax (monoclonal RM2 antibody; RM2 printing concentration 100 μM): 55,756 | Kd (monoclonal RM2 antibody; RM2 printing concentration 100 μM, read-out: KD, surf): 5.1 nM | relative binding specificity of RM2 for the epitopes (monoclonal RM2 antibody; antibody RM2): RM2>pentasaccharide 29 | Kd (monoclonal RM2 antibody; [3]): 4.54 ± 0.903 nM | binding of induced IgG antibodies to glycan [1]: strong binding | binding of induced antibodies to glycan, microarray of STn, DSGG, RM2 antigen, analogs and fragments [1]: mainly bound | binding specificity of the antibody to printed oligosaccharides [2]: recognize hexasaccharide 1 specifically
